What all share (assay): Radioligand binding assay: inhibition of binding of 125I-GnRH-A to GnRH receptors (membranes)
In one test the target is T1, human GnRH receptors (Homo sapiens, UniProt P30968).
T1 construct: expressed in transfected cells; host or cells: HEK 293
T1 sequence (P30968 1-328): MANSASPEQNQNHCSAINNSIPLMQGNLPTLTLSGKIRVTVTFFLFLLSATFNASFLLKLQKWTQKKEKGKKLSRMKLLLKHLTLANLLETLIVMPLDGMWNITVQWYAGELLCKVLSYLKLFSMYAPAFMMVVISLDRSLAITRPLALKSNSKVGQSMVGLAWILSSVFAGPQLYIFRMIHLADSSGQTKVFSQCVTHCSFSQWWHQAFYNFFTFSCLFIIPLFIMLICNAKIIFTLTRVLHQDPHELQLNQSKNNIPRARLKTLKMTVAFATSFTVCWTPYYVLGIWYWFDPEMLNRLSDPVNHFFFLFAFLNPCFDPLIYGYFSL
Conditions: Human GnRH receptor; competition with 125I-GnRH-A; Ki calculated from IC50 (Cheng et al.). In outline: (§1)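 Membranes from HEK 293 expressing mouse or human receptor, or rat pituitaries, incubated 1 h at RT with ~0.04–0.06 nM ¹²⁵I-[des-Gly¹⁰,D-Ala⁶]GnRH ethylamide and competitor (0.1–10,000 nM) in HEPES pH 7.4 with MgCl2, EDTA, BSA. Filtration onto PEI-soaked GF/C filters, scintillation counting; Ki from IC50 by Cheng–Prusoff.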

The target of a further test is T2, mouse GnRH receptors (Mus musculus, UniProt Q01776).
T2 construct: expressed in transfected cells; host or cells: HEK 293
T2 sequence (Q01776 1-327): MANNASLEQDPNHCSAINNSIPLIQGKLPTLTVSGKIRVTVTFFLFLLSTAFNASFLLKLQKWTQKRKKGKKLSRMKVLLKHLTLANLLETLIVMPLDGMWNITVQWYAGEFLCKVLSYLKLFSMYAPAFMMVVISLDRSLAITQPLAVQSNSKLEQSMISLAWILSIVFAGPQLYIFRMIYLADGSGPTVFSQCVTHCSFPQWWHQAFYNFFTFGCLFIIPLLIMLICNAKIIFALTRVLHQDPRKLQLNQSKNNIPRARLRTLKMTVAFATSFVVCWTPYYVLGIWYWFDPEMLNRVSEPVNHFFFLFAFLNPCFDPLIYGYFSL
Conditions: Mouse GnRH receptor; competition with 125I-GnRH-A; Ki calculated from IC50 (Cheng et al.). In outline:
as §1

Another test addresses T3, rat GnRH receptor (Rattus norvegicus, UniProt P30969).
T3 construct: rat pituitaries (Pel Freez Biologicals, Rogers, Ark.) are homogenized in buffer A; tissue Pel Freez Biologicals; host or cells: rat pituitaries
T3 sequence (P30969 1-327): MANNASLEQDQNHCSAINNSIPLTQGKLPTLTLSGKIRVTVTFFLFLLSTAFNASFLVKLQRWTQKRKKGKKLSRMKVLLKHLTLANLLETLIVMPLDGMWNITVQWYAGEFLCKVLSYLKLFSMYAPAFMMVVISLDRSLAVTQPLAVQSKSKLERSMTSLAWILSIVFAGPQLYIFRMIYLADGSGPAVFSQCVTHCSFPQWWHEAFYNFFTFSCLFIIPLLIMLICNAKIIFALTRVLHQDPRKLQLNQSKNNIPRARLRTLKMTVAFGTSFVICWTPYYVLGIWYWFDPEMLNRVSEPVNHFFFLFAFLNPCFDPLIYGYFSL
Conditions: competition with 125I-GnRH-A, Ki calculated from IC50 (Cheng et al.). In outline: as §1

pKi: −log10 of the molar value.

Data on two molecules can be found in US6903132B2, “Non-peptide GnRH agents, pharmaceutical compositions and methods for their use” (Agouron Pharmaceuticals, Inc., priority 2002, dated 2005).

As a reminder, the pKi is −log10 of the Ki, conventionally taken in molar units.

With `COc1cc2c(cc1Cc1ccc(C(=O)NNc3cc(C)c4c(C)nn(C)c4n3)o1)C(C)(C)CCC2(C)C` [Example C2, 5-[(3-Methoxy-5,5,8,8-tetramethyl-5,6,7,8-tetrahydro-2-naphthalenyl)methyl]-N′-(1,3,4-trimethyl-1H-pyrazolo[3,4-b]pyridin-6-yl)-2-furohydrazide], the figures for the pKi at human GnRH receptors, at mouse GnRH receptors and at rat GnRH receptor were 8.02, 7.64 and 7.49, respectively.

Turning to `Cc1cc2c(cc1Cc1ccc(C(=O)NNc3cc(C)c4c(C)nn(C)c4n3)o1)C(C)(C)CCC2(C)C` [Example C1, 5-[(3,5,5,8,8-Pentamethyl-5,6,7,8-tetrahydro-2-naphthalenyl)methyl]-N′-(1,3,4-trimethyl-1H-pyrazolo[3,4-b]pyridin-6yl)-2-furohydrazide], the negative logarithm of the Ki (pKi) on human GnRH receptors is 8.52; on mouse GnRH receptors it was 8.15; at rat GnRH receptor, 8.19.
